Test results: the OligoGym collection
HELM strings list units from the 5' end as sugar, base in round brackets, then linkage (d deoxyribose, r ribose, m 2'-O-methyl, p phosphodiester). Strings are as the collection lists them; they lack the last nucleoside at the 3' end of the tested compound. [moe] = 2'-O-(2-methoxyethyl) (MOE); [sp] = phosphorothioate linkage; [m5C] = 5-methylcytosine

Biological target: GFAP
Assay: mouse, dose not given
Details: ASO

RNA1{[moe](T)[sp].[moe](T)p.[moe](G)p.[moe](G)p.[moe]([m5C])p.d(A)[sp].d(G)[sp].d(T)[sp].d(A)[sp].d(T)[sp].d(T)[sp].d(A)[sp].d([m5C])[sp].d([m5C])[sp].d(T)[sp].[moe]([m5C])p.[moe](T)p.[moe](A)[sp].[moe]([m5C])}$$$$ (last 3' nucleoside missing)
3 h FOB score: 0 score 0-7

RNA1{[moe](T)[sp].[moe]([m5C])p.[moe](A)p.[moe]([m5C])p.d(A)[sp].d(T)[sp].d(T)[sp].d([m5C])[sp].d(A)[sp].d([m5C])[sp].d(T)[sp].d(A)[sp].d(A)[sp].d(T)[sp].[moe](A)p.[moe](T)p.[moe](T)p.[moe](T)[sp].[moe](A)}$$$$ (last 3' nucleoside missing)
3 h FOB score: 0 score 0-7

RNA1{[moe](G)[sp].[moe](A)p.[moe](A)p.[moe](T)p.[moe]([m5C])[sp].d(A)[sp].d(T)[sp].d(T)[sp].d(T)[sp].d([m5C])[sp].d(A)[sp].d(G)[sp].d(G)[sp].d(G)[sp].d([m5C])[sp].[moe]([m5C])p.[moe](A)p.[moe](A)[sp].[moe](T)}$$$$ (last 3' nucleoside missing)
3 h FOB score: 6 score 0-7

RNA1{[moe](T)[sp].[moe](T)p.[moe](G)p.[moe](T)p.[moe](G)[sp].d(A)[sp].d(T)[sp].d(T)[sp].d(T)[sp].d(T)[sp].d([m5C])[sp].d([m5C])[sp].d([m5C])[sp].[moe]([m5C])p.[moe](G)p.[moe](T)[sp].[moe]([m5C])}$$$$ (last 3' nucleoside missing)
3 h FOB score: 2 score 0-7

RNA1{[moe](A)[sp].[moe]([m5C])p.[moe]([m5C])p.[moe](T)p.[moe]([m5C])[sp].d([m5C])[sp].d([m5C])[sp].d(T)[sp].d(G)[sp].d(A)[sp].d([m5C])[sp].d([m5C])[sp].d(T)[sp].d(G)[sp].d(T)[sp].[moe]([m5C])p.[moe](T)p.[moe](A)[sp].[moe](T)}$$$$ (last 3' nucleoside missing)
3 h FOB score: 3 score 0-7

RNA1{[moe](G)[sp].[moe](G)p.[moe](T)p.[moe](T)p.[moe](G)[sp].d(G)[sp].d(T)[sp].d(T)[sp].d(T)[sp].d([m5C])[sp].d(A)[sp].d(T)[sp].d([m5C])[sp].d([m5C])[sp].d(T)[sp].[moe](G)p.[moe](G)p.[moe](A)[sp].[moe](G)}$$$$ (last 3' nucleoside missing)
3 h FOB score: 3 score 0-7

RNA1{[moe](T)[sp].[moe](G)p.[moe]([m5C])p.[moe]([m5C])p.[moe]([m5C])[sp].d([m5C])[sp].d([m5C])[sp].d([m5C])[sp].d(G)[sp].d([m5C])[sp].d([m5C])[sp].d([m5C])[sp].d(T)[sp].d([m5C])[sp].d([m5C])[sp].[moe](T)p.[moe]([m5C])p.[moe]([m5C])[sp].[moe]([m5C])}$$$$ (last 3' nucleoside missing)
3 h FOB score: 4 score 0-7

RNA1{[moe](G)[sp].[moe](G)p.[moe]([m5C])p.[moe](A)p.[moe](A)[sp].d([m5C])[sp].d(A)[sp].d(G)[sp].d(T)[sp].d(T)[sp].d(T)[sp].d([m5C])[sp].d([m5C])[sp].d(A)[sp].d(T)[sp].[moe](A)p.[moe](A)p.[moe]([m5C])[sp].[moe](A)}$$$$ (last 3' nucleoside missing)
3 h FOB score: 0 score 0-7

RNA1{[moe](G)[sp].[moe](G)p.[moe](A)p.[moe](G)p.[moe](G)[sp].d(G)[sp].d([m5C])[sp].d(G)[sp].d(A)[sp].d(T)[sp].d(G)[sp].d(T)[sp].d(A)[sp].d(G)[sp].d(T)[sp].[moe](A)p.[moe](G)p.[moe](G)[sp].[moe](T)}$$$$ (last 3' nucleoside missing)
3 h FOB score: 1 score 0-7

RNA1{[moe](G)[sp].[moe]([m5C])p.[moe](A)p.[moe](T)p.[moe](T)p.[moe](T)p.d(G)[sp].d(T)[sp].d([m5C])[sp].d(T)[sp].d(T)[sp].d(T)[sp].d(A)[sp].d(T)[sp].d(T)[sp].d(T)[sp].[moe](T)p.[moe](T)[sp].[moe]([m5C])}$$$$ (last 3' nucleoside missing)
3 h FOB score: 1 score 0-7

RNA1{[moe](G)[sp].[moe](T)p.[moe]([m5C])p.[moe](T)p.[moe](T)[sp].d(T)[sp].d(A)[sp].d(T)[sp].d(T)[sp].d(T)[sp].d(T)[sp].d(T)[sp].d([m5C])[sp].[moe]([m5C])p.[moe](T)p.[moe]([m5C])[sp].[moe](A)}$$$$ (last 3' nucleoside missing)
3 h FOB score: 4 score 0-7

RNA1{[moe](G)[sp].[moe]([m5C])p.[moe](A)p.[moe]([m5C])p.[moe](A)[sp].d(G)[sp].d(T)[sp].d(T)[sp].d([m5C])[sp].d([m5C])[sp].d([m5C])[sp].d(A)[sp].d(G)[sp].d(A)[sp].d(T)[sp].[moe](A)p.[moe]([m5C])p.[moe](T)[sp].[moe]([m5C])}$$$$ (last 3' nucleoside missing)
3 h FOB score: 0 score 0-7

RNA1{[moe](G)[sp].[moe](T)p.[moe]([m5C])p.[moe](T)p.[moe]([m5C])[sp].d(A)[sp].d(G)[sp].d(T)[sp].d(T)[sp].d(T)[sp].d(T)[sp].d([m5C])[sp].d([m5C])[sp].d(T)[sp].d([m5C])[sp].[moe]([m5C])p.[moe](A)p.[moe](G)[sp].[moe]([m5C])}$$$$ (last 3' nucleoside missing)
3 h FOB score: 0 score 0-7

RNA1{[moe](G)[sp].[moe](T)p.[moe]([m5C])p.[moe](A)p.[moe](G)p.[moe]([m5C])p.d([m5C])[sp].d(T)[sp].d(G)[sp].d(G)[sp].d(T)[sp].d(T)[sp].d(A)[sp].d(G)[sp].d([m5C])[sp].d([m5C])[sp].[moe](T)p.[moe](T)[sp].[moe](T)}$$$$ (last 3' nucleoside missing)
3 h FOB score: 4 score 0-7

RNA1{[moe](T)[sp].[moe](G)p.[moe](G)p.[moe]([m5C])p.[moe](A)[sp].d(G)[sp].d(T)[sp].d(A)[sp].d(T)[sp].d(T)[sp].d(A)[sp].d([m5C])[sp].d([m5C])[sp].[moe](T)p.[moe]([m5C])p.[moe](T)[sp].[moe](A)}$$$$ (last 3' nucleoside missing)
3 h FOB score: 0 score 0-7

RNA1{[moe](G)[sp].[moe](T)p.[moe](G)p.[moe](A)p.d([m5C])[sp].d(T)[sp].d(A)[sp].d(T)[sp].d([m5C])[sp].d(T)[sp].d(A)[sp].d(G)[sp].d(G)[sp].d(A)[sp].[moe](T)p.[moe](T)p.[moe](T)p.[moe](G)[sp].[moe](G)}$$$$ (last 3' nucleoside missing)
3 h FOB score: 3 score 0-7

RNA1{[moe](A)[sp].[moe](G)p.[moe](T)p.[moe]([m5C])p.d(A)[sp].d(G)[sp].d([m5C])[sp].d([m5C])[sp].d(T)[sp].d(G)[sp].d(G)[sp].d(T)[sp].d(T)[sp].d(A)[sp].[moe](G)p.[moe]([m5C])p.[moe]([m5C])p.[moe](T)[sp].[moe](T)}$$$$ (last 3' nucleoside missing)
3 h FOB score: 3 score 0-7

RNA1{[moe](A)[sp].[moe]([m5C])p.[moe]([m5C])p.[moe](T)p.[moe]([m5C])[sp].d([m5C])[sp].d(A)[sp].d(T)[sp].d([m5C])[sp].d(T)[sp].d([m5C])[sp].d(T)[sp].d(G)[sp].d(G)[sp].d([m5C])[sp].[moe](A)p.[moe](A)p.[moe]([m5C])[sp].[moe](A)}$$$$ (last 3' nucleoside missing)
3 h FOB score: 6 score 0-7

RNA1{[moe](T)[sp].[moe](T)p.[moe](G)p.[moe](T)p.[moe]([m5C])p.[moe](T)p.d(T)[sp].d(T)[sp].d(A)[sp].d(T)[sp].d(T)[sp].d(T)[sp].d(T)[sp].d(T)[sp].d([m5C])[sp].d([m5C])[sp].[moe](T)p.[moe]([m5C])[sp].[moe](A)}$$$$ (last 3' nucleoside missing)
3 h FOB score: 4 score 0-7

RNA1{[moe](T)[sp].[moe](T)p.[moe](G)p.[moe](T)p.[moe](G)p.[moe](A)p.d(T)[sp].d(T)[sp].d(T)[sp].d(T)[sp].d([m5C])[sp].d([m5C])[sp].d([m5C])[sp].d([m5C])[sp].d(G)[sp].d(T)[sp].[moe]([m5C])p.[moe](T)[sp].[moe](T)}$$$$ (last 3' nucleoside missing)
3 h FOB score: 4 score 0-7

RNA1{[moe]([m5C])[sp].[moe]([m5C])p.[moe]([m5C])p.[moe]([m5C])p.[moe](T)[sp].d([m5C])[sp].d(T)[sp].d(T)[sp].d([m5C])[sp].d([m5C])[sp].d(T)[sp].d([m5C])[sp].d([m5C])[sp].d(A)[sp].d(G)[sp].[moe]([m5C])p.[moe]([m5C])p.[moe](G)[sp].[moe]([m5C])}$$$$ (last 3' nucleoside missing)
3 h FOB score: 3 score 0-7

RNA1{[moe](T)[sp].[moe](A)p.[moe]([m5C])p.[moe](A)p.[moe](T)[sp].d([m5C])[sp].d([m5C])[sp].d([m5C])[sp].d([m5C])[sp].d(T)[sp].d(T)[sp].d(T)[sp].d([m5C])[sp].d(T)[sp].d([m5C])[sp].[moe](T)p.[moe]([m5C])p.[moe]([m5C])[sp].[moe](T)}$$$$ (last 3' nucleoside missing)
3 h FOB score: 1 score 0-7

RNA1{[moe](G)[sp].[moe](T)p.[moe]([m5C])p.[moe](A)p.[moe]([m5C])p.[moe](A)p.d(T)[sp].d(T)[sp].d([m5C])[sp].d(A)[sp].d([m5C])[sp].d(T)[sp].d(A)[sp].d(A)[sp].d(T)[sp].d(A)[sp].[moe](T)p.[moe](T)[sp].[moe](T)}$$$$ (last 3' nucleoside missing)
3 h FOB score: 0 score 0-7

RNA1{[moe](T)[sp].[moe](T)p.[moe](T)p.[moe](G)p.[moe](G)p.d(T)[sp].d(G)[sp].d([m5C])[sp].d(T)[sp].d(T)[sp].d(T)[sp].d(T)[sp].d(G)[sp].d([m5C])[sp].d([m5C])[sp].[moe]([m5C])p.[moe]([m5C])p.[moe]([m5C])[sp].[moe](T)}$$$$ (last 3' nucleoside missing)
3 h FOB score: 2 score 0-7

RNA1{[moe](G)[sp].[moe](T)p.[moe](G)p.[moe](G)p.[moe](A)[sp].d(G)[sp].d(G)[sp].d(G)[sp].d([m5C])[sp].d(G)[sp].d(A)[sp].d(T)[sp].d(G)[sp].d(T)[sp].d(A)[sp].[moe](G)p.[moe](T)p.[moe](A)[sp].[moe](G)}$$$$ (last 3' nucleoside missing)
3 h FOB score: 7 score 0-7

RNA1{[moe]([m5C])[sp].[moe](T)p.[moe](T)p.[moe](G)p.[moe](G)[sp].d(A)[sp].d([m5C])[sp].d(T)[sp].d([m5C])[sp].d([m5C])[sp].d(T)[sp].d(T)[sp].d(A)[sp].d(A)[sp].d(T)[sp].[moe](G)p.[moe](A)p.[moe]([m5C])[sp].[moe]([m5C])}$$$$ (last 3' nucleoside missing)
3 h FOB score: 0 score 0-7
